The text below walks through data of patent US9963446B2, “Oxepan-2-yl-pyrazol-4-yl-heterocyclyl-carboxamide compounds and methods of use” (Genentech, Inc., priority 2014, dated 2018).

In one assay the target is PIM1 (Homo sapiens (Human), UniProt P11309). Nature of the assay: Pim kinase binding activity (PIM1 LC3K Ki). The format is biochemical. As to conditions: 20 pM PIM1, 10 μM ATP, 90 minutes. As for the experimental part: PIM-1, -2, and -3 enzymes were generated as fusion proteins expressed in bacteria and purified by IMAC column chromatography (Sun, X., Chiu, J. F., and He, Q. Y. (2005) Expert Rev. Proteomics, 2:649-657). A fluorescent-labeled Pim-specific peptide substrate, was custom synthesized by American Peptide Company (Sunnyvale, Calif.). Reaction Buffer contained 10 mM HEPES, pH 7.2, 10 mM MgCl2, 0.01% Tween 20, 2 mM DTT. Termination Buffer contained 190 mM HEPES, pH 7.2, 0.015% Brij-35, 0.2% Coating Reagent 3 (Caliper Life Sciences, Hopkinton, Mass.), 20 mM EDTA. Separation Buffer contained 100 mM HEPES, pH 7.2, 0.015% Brij-35, 0.1% Coating Reagent 3, 1:200 Coating Reagent 8 (Caliper Life Sciences, Hopkinton, Mass.), 10 mM EDTA and 5% DMSO.
Chain of PIM1 (P11309 whole entry, the tested form may be a part): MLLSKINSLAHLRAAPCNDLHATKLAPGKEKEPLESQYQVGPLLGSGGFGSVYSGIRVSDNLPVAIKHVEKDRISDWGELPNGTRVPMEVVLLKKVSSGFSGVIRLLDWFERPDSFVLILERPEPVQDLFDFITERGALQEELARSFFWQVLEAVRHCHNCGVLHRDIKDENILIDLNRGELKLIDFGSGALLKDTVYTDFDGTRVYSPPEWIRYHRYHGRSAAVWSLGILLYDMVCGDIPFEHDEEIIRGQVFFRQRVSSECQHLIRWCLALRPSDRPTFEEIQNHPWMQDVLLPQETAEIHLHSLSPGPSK
PIM reactions were carried out in a final volume of 10 μL per well in a 384-well plate. A standard enzymatic reaction, initiated by the addition of 5 μL 2×ATP and test compound to 5 μL of 2× enzyme and FAM-peptide, contained 20 pM PIM1, 50 pM PIM2, or 55 pM PIM3, 1 μM FAM-peptide, and 10 μM ATP, in Reaction Buffer. After 90 minutes of incubation at room temperature, the phosphorylation reaction was stopped by the addition of 10 μL Termination Buffer. The product and substrate in each independent reaction were separated on a 12-sipper microfluidic chip (Caliper Life Sciences, Hopkinton, Mass.) run on a Caliper LC3000® (Caliper Life Sciences, Hopkinton, Mass.). The separation of product and substrate was optimized by choosing voltages and pressure using Caliper's Optimizer software (Hopkinton, Mass.). The separation conditions used a downstream voltage of −500V, an upstream voltage of −2150V, and a screening pressure of −1.2 psi. The product and substrate fluorophore were excited at 488 nm and detected at 530 nm. Substrate conversion was calculated from the electropherogram using HTS Well Analyzer software (Caliper Life Sciences, Hopkinton, Mass.). Ki values for the test compound were calculated. See Table 1 for representative PIM1 LC3K Ki in micromolar values of exemplary compounds.

Another assay deals with BaF3 PIM1 cells. Nature of the assay: In vitro cell proliferation, BaF3 transfected with PIM1. The format is cell-based, murine. The note with it: Mus musculus; BaF3 PIM1 line, incubated overnight; read-out: Prolif BaF3 PIM1 (IC50). As for the experimental part: (§1) BaF3 parental line was obtained from the DSMZ repository. BaF3 lines transfected with PIM1 or PIM2 were generated. Mouse IL-3 was purchased from R&D Systems. G418 was purchased from Clontech. Media for BaF3 parental line contained RPMI, 10% FBS, 2 mM L-Glutamine, 2 ng/mL mIL-3. Media for BaF3 PIM1 & 2 lines contained RPMI, 10% FBS, 2 mM L-Glutamine, […]. Media for MM1.S (multiple myeloma cells) line contained RPMI, 10% FBS, 2 mM L-Glutamine.
(§2) BaF3, a murine interleukin-3 dependent pro-B cell line, parental cells, BaF3 PIM1 cells, BaF3 PIM2 cells, and MM1.S (multiple myeloma) cells were seeded at 2 k/well, 5 k/well, 5 k/well, and 10 k/well respectively, in a 384-well plate, at 45 μL/well. Test compound was added at 5 μL/well. BaF3 cells (parental and transfected) were incubated overnight, while MM1.S cells were incubated for 72 hours at 37° C., 5% CO2. CELL TITER GLO® Reagent (Promega) was added at 50 μL/well, the plates were incubated for 30 minutes, and their luminescence read on an HT Analyst. IC50/EC50 values for the test compound were calculated.

For assay [1], the system named is MM1.S (multiple myeloma) cells. The experiment in a line: In vitro cell proliferation, MM1.S (CELL TITER GLO). The format is cell-based. As to conditions: Homo sapiens, 72 hours, read-out: Prolif MM1S ATP (EC50). The protocol: as §1, §2
On the technique in general: In ATP-based viability assays light output follows the ATP content of the culture.

A further assay deals with BaF3 parental cells. The experiment in a line: In vitro cell proliferation, BaF3 parental line + IL3. The format is cell-based, murine. As to conditions: Mus musculus; BaF3 parental line with mIL-3, incubated overnight; read-out: Prolif BaF3 + IL3 (IC50). As for the experimental part:
as §1, §2

Take `Cn1ncc(NC(=O)c2csc(-c3cc4[nH]ncc4cc3F)n2)c1[C@@H]1CC[C@@H](N)[C@H](F)CO1` [Example 109, N-[5-[(2S,5R,6S)-5-amino-6-fluoro-oxepan-2-yl]-1-methyl-pyrazol-4-yl]-2-(5-fluoro-1H-indazol-6-yl)thiazole-4-carboxamide]: at PIM1, the Ki (usually a measure of affinity in units of concentration, obtained from inhibition or displacement) stood at 0.019 nM. For the same molecule, the IC50 (commonly the point on the concentration scale where inhibition reaches its midpoint) stood at 39.4 nM in the assay with BaF3 PIM1 cells and 3100 nM in the assay on BaF3 parental cells. For the same molecule, the EC50 (in general, the midpoint of the concentration-response curve) in assay [1] turned out to be 287 nM.

Molecule `Cc1cnc(-c2nc(C(=O)Nc3cnn(C)c3[C@@H]3CC[C@@H](N)[C@H](F)CO3)cs2)cn1` [Example 110, N-[5-[(2S,5R,6S)-5-amino-6-fluoro-oxepan-2-yl]-1-methyl-pyrazol-4-yl]-2-(5-methylpyrazin-2-yl)thiazole-4-carboxamide] showed an inhibitory constant (Ki) at PIM1 of 0.018 nM. The IC50 in the assay on BaF3 PIM1 cells is 63.8 nM; with BaF3 parental cells, 9200 nM. For the same molecule, the EC50 in assay [1] worked out at 148 nM.

`Cn1ncc(NC(=O)c2csc(-c3c(F)cc4c(c3F)OCC[C@H]4O)n2)c1[C@@H]1CC[C@@H](N)[C@H](F)CO1` [Example 112, N-(5-((2S,5R,6S)-5-amino-6-fluorooxepan-2-yl)-1-methyl-1H-pyrazol-4-yl)-2-((R)-6,8-difluoro-4-hydroxychroman-7-yl)thiazole-4-carboxamide] registered a Ki on PIM1 of 0.004 nM. Further, the IC50 with BaF3 PIM1 cells was 118 nM; with BaF3 parental cells, more than 25000 nM. Besides, in assay [1], the EC50 was 202 nM.

With `Cn1ncc(NC(=O)c2csc(-c3n[nH]c4c3CCC4)n2)c1[C@@H]1CC[C@@H](N)[C@H](F)CO1` [Example 113, N-[5-[(2S,5R,6S)-5-amino-6-fluoro-oxepan-2-yl]-1-methyl-pyrazol-4-yl]-2-(1,4,5,6-tetrahydrocyclopenta[c]pyrazol-3-yl)thiazole-4-carboxamide], at PIM1, the Ki amounted to 0.03 nM. For the same molecule, the IC50 in the assay with BaF3 PIM1 cells was 327 nM; with BaF3 parental cells, 13600 nM. Besides, in assay [1], the EC50 amounted to 906 nM.

On to `N[C@H]1CC[C@H](c2c(NC(=O)c3ccc(F)c(-c4c(F)cccc4F)n3)cnn2C2CC2)OC[C@@H]1F` [Example 114, N-[5-[(2R,5S,6R)-5-amino-6-fluoro-oxepan-2-yl]-1-cyclopropyl-pyrazol-4-yl]-6-(2,6-difluorophenyl)-5-fluoro-pyridine-2-carboxamide], for which, at PIM1, affinity was put at a Ki of 0.173 nM. Moreover, the IC50 amounted to 75.1 nM in the assay on BaF3 PIM1 cells and 10100 nM with BaF3 parental cells. For the same molecule, the concentration giving a half-maximal response (EC50) in assay [1] was 443 nM.

In turn, `CO[C@H]1[C@H](N)CC[C@@H](c2c(NC(=O)c3csc(-c4c(F)cccc4F)n3)cnn2C)O[C@H]1C` [Example 117, N-[5-[(2S,5R,6S,7S)-5-amino-6-methoxy-7-methyl-oxepan-2-yl]-1-methyl-pyrazol-4-yl]-2-(2,6-difluorophenyl)thiazole-4-carboxamide] had a Ki on PIM1 of 0.0325 nM. The IC50 in the assay with BaF3 PIM1 cells stood at 14 nM; in the assay with BaF3 parental cells it was 6900 nM. The EC50 in assay [1] was found to be 53.9 nM.

Take `CO[C@H]1[C@H](N)CC[C@@H](c2c(NC(=O)c3csc(-c4c(F)cccc4F)n3)cnn2C)O[C@@H]1C` [Example 118, N-(5-((2S,5R,6S,7R)-5-amino-6-methoxy-7-methyloxepan-2-yl)-1-methyl-1H-pyrazol-4-yl)-2-(2,6-difluorophenyl)thiazole-4-carboxamide]: the Ki at PIM1 turned out to be 0.006 nM. Moreover, the values for the IC50 with BaF3 PIM1 cells and in the assay on BaF3 parental cells were 8.95 nM and 2500 nM, respectively. Further, the half-maximal effective concentration (EC50) in assay [1] came out at 67.3 nM.

At PIM1, `COc1cnc(-c2nc(C(=O)Nc3cnn(C)c3[C@@H]3CC[C@@H](N)[C@H](F)CO3)cs2)c(C)c1` [Example 119, N-[5-[(2S,5R,6S)-5-amino-6-fluoro-oxepan-2-yl]-1-methyl-pyrazol-4-yl]-2-(5-methoxy-3-methyl-2-pyridyl)thiazole-4-carboxamide] came in with a Ki of 0.043 nM. The IC50 in the assay with BaF3 PIM1 cells came out at 49.2 nM; in the assay on BaF3 parental cells, 2900 nM. The concentration giving a half-maximal response (EC50) in assay [1] worked out at 407 nM.

In turn, `Cn1ncc(NC(=O)c2csc(-c3cccc4cccnc34)n2)c1[C@@H]1CC[C@@H](N)[C@H](F)CO1` [Example 120, N-[5-[(2S,5R,6S)-5-amino-6-fluoro-oxepan-2-yl]-1-methyl-pyrazol-4-yl]-2-(8-quinolyl)thiazole-4-carboxamide] yielded a Ki on PIM1 of 1.79 nM. The values for the IC50 in the assay with BaF3 PIM1 cells and in the assay on BaF3 parental cells were 563 nM and 2300 nM, respectively. The EC50 in assay [1] stood at 228 nM.

In the case of `C[C@@H]1O[C@H](c2c(NC(=O)c3csc(-c4c(F)cccc4F)n3)cnn2C)CC[C@@H](N)[C@H]1F` [Example 121, N-(5-((2S,5R,6R,7S)-5-amino-6-fluoro-7-methyloxepan-2-yl)-1-methyl-1H-pyrazol-4-yl)-2-(2,6-difluorophenyl)thiazole-4-carboxamide], at PIM1, the inhibitory constant (Ki) worked out at 0.0049 nM. The IC50 turned out to be 12.2 nM in the assay on BaF3 PIM1 cells and 14200 nM in the assay on BaF3 parental cells. For the same molecule, in assay [1], the EC50 stood at 376 nM.

On PIM1, `Cn1ncc(NC(=O)c2csc(-c3cn4ccnc4cn3)n2)c1[C@@H]1CC[C@@H](N)[C@H](F)CO1` [Example 122, N-(5-((2S,5R,6S)-5-amino-6-fluorooxepan-2-yl)-1-methyl-1H-pyrazol-4-yl)-2-(imidazo[1,2-a]pyrazin-6-yl)thiazole-4-carboxamide] returned a Ki of 0.025 nM. Besides, the IC50 was 184 nM with BaF3 PIM1 cells and 12500 nM in the assay on BaF3 parental cells. Moreover, the concentration for a half-maximal effect (EC50) in assay [1] stood at 600 nM.
